The structures appear in SMILES notation. ± gives the expanded uncertainty stated by the source.

A short description of the series: refractive index (Na D-line) (dimensionless); wn = mass fraction of the nth substance listed. The settings on record: 323.15 K, 101.3 kPa, Liquid, Standard Abbe refractometry.

As a reminder, the refractive index is a measure of how strongly the sample bends light. As to `O=BOB([O-])OB([O-])OB=O.[Na+].[Na+]` [sodium tetraborate] + O, the refractive index (w1 = 0.0953) worked out at 1.3477 ± 0.0004.

For `[Cl-].[Li+]` [lithium chloride] + O, the refractive index (w1 = 0.4841) was found to be 1.439 ± 0.0018.

Turning to `[Cl-].[Na+]` [sodium chloride] + O, the refractive index (w1 = 0.2683) was determined as 1.3765 ± 0.0019.

The record behind these values is the NIST ThermoML archive (doi:10.1021/acs.jced.9b00561).
